# Assay results from patent publication US6153589A, “2,3-epoxy alcohols, acids and derivatives as anti retroviral chemotherapeutic agents” (The United States of America as represented by the …, priority 1992, dated 2000).
# Where two headings read alike, the source gives them in different places.
# Tests used:
# porcine Renin = target: T1, porcine Renin (Sus scrofa, UniProt A0A287APG1); test: Porcine Renin cleavage of porcine tetradecapeptide (HPLC); assay type: biochemical; details: 0.5 μl of 50 μg/μl inhibitor in DMSO in 50 μl; pH 6.00, room temperature, 70 min; relative to uninhibited control
# T1 construct: purchased Sigma
# From the text: Renin Activity: Porcine Renin Cleavage of Porcine Tetradecapeptide
# Proteolytic enzymes are ubiquitous in many living systems. Renin is an asparxyl protease found in mammals which is responsible for the regulation of blood pressure. Structural and functional similarities between Renin and retroviral proteases have been previously noted (Pearl, L. H., Taylor, W. R., (1987) Nature, 329, 351-354). Consequently, successful therapeutic inhibition of retroviral proteases depends on the ability of the inhibitor to inhibit the retroviral enzyme while having a greatly diminished effect on normally occurring enzymes like Renin. The failure to inhibit the desired enzyme selectively may have an adverse effect on normal biochemical functions. The similarity of Renin to retroviral proteases and its viral normal bodily function makes it an attractive system in which to examine inhibitory selectivity.
# Renin activity was determined by a method similar to that described above for the HIV protease. A solution containing 0.37 m unit (0.5 μl of stock solution containing 0.75 m unit/μl) of porcine Renin (Sigma) was added to 5 μg of porcine angiotensinogen in 50 μl of 0.1 M citrate-phosphate buffer (pH 6.00) containing 0.25% NP-40. A DMSO solution containing the inhibitor (0.5 μl of a 50 μg/μl solution) was added and the reaction was allowed to incubate at room temperature for 70 min. The entire mixture was analyzed by HPLC chromatographic analysis was perforemd on a 4.6×250 mm Lichrosorb RP-18 column eluting with a gradient of 0-50% acetonitrile in 0.02 M KH2 Po4 (pH 4.7) over 30 min monitoring absorbance at 206 nm. Appearance of both the tetrapeptide and the decapeptide products may be monitored under these conditions. Enzyme activity is expressed as the amount of tetrapeptide produced relative to an uninhibited control, and are summarized in Table 3 below.
# HIV1 IIIb = test: microbe, parasite or virus in culture; assay type: cell-based; details: Human immunodeficiency virus 1, IIIB; for viability at 10 µg/mL: 10 ug/ml; for viability at 14 µg/mL: 14 ug/ml; for viability at 140 µg/mL: 140 ug/ml; for viability at 38 µg/mL: 38 ug/ml; for viability at 80.2 µg/mL: 80.2 ug/ml; for viability at 23.8 µg/mL: 23.8 ug/ml
# How it was run: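 Human host cells infected with HIV1 IIIb (virus-producing H9 cells or cell-free virus) and incubated seven days with compound. Viable cells measured by XTT formazan absorbance; response expressed as % of uninfected controls against virus kill %. Some cultures redosed after 3 days.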
# HIV-2 protease = test: HIV protease cleavage of nonapeptide (HPLC); assay type: biochemical; details: 0.5 μl of 10 μg/μl inhibitor in DMSO per 10 μl reaction; pH 6.5, room temperature; pentapeptide product relative to DMSO control; sampled at ca. 16 and 40 hr (time not given)
# Experimental: Activity Against HIV Protease
# The assay for proteolyic activity is a modified version of that previously described by Copeland et al., Gene Anal. Tech., 5:109-115 (1988). For each assay to be performed 2 microliters of protease solution (ca. 100 ng) is added to 3 μg of nonapeptide (Val-Ser-Gln-Asn-Tyr-Pro-Ile-Val-Gln-NH2) in 8 μl of 200 mM sodium phosphate, 1 M NaCl, 5% glycerol, 0.25% Nonidet-40, at pH 6.5. This affords a stock solution containing 10 μl per number of reactions. This stock is aliquoted out in 10 μl portions to which 0.5 μl of DMSO (a control is run with each set of assays to compensate for minor experimental variations) or a DMSO solution containing 10 μg/μl of an inhibitor, i.e., any one of the compounds of the present invention, is added. The reactions were incubated at room temperature and 4 μl portions were removed at ca. 16 and 40 hr. intervals. HPLC analysis was performed on a 4.6×250 mm Lichrosorb RP-18 column eluted with a gradient of 0-40% acetonitrile in water (containing 0.05% TFA) over 30 min monitoring absorbance at 206 nm. Progress of the enzymatic cleavage was followed by monitoring the appearance of the pentapeptide (Val-Ser-Gln-Asn-Tyr-OH) cleavage product. The activity is expressed as the amount of the pentapeptide (Val-Ser-Gln-Asn-Tyr-OH) observed relative to the control reaction for that set of assays.
# Inhibition of HIV-2 protease
# T1 sequence (A0A287APG1 24-407): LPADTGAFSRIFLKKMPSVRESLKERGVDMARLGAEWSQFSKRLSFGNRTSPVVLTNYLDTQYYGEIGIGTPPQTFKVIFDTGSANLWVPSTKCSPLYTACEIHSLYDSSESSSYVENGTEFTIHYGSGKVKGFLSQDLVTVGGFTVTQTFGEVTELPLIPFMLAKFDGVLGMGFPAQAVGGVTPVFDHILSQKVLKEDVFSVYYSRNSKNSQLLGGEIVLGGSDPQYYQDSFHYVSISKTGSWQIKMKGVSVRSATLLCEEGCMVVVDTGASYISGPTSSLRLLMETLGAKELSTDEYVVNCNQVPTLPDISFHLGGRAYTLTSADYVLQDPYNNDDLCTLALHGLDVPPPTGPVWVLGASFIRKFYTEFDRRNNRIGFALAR
smiles,measurement,setting,value
"CCCCCCC[C@H]1O[C@H]1CO [Example 15, (2S-cis)-3-Heptyloxirane Methanol]",Percent control (tetrapeptide produced),porcine Renin,86%
same,viability at 92 µg/mL,"HIV1 IIIb; 168 h, read-out: Antiviral Effect (viable cells as % of uninfected controls), run 3, 92 ug/ml, source V (cell free virus), virus kill 35.0%",60.8%
same,viability at 10 µg/mL,"HIV1 IIIb; 168 h, read-out: Antiviral Effect (viable cells as % of uninfected controls), run 4, source V (cell free virus), virus kill 57.0%",78.2%
same,viability at 10 µg/mL,"HIV1 IIIb; 168 h, read-out: Antiviral Effect (viable cells as % of uninfected controls), run 5, source V (cell free virus), virus kill 26.0%",58.6%
same,viability at 21.6 µg/mL,"HIV1 IIIb; 168 h, read-out: Antiviral Effect (viable cells as % of uninfected controls), run 6*, 21.6 ug/ml, source V (cell free virus), virus kill 31.0%, culture redosed with compound after 3 days",32%
same,viability at 46 µg/mL,"HIV1 IIIb; H9, 168 h, read-out: Antiviral Effect (viable cells as % of uninfected controls), run 1, 46 ug/ml, source C (virus producing H9 cells), virus kill 15.0%",58.3%
same,viability at 4.6 µg/mL,"HIV1 IIIb; H9, 168 h, read-out: Antiviral Effect (viable cells as % of uninfected controls), run 2, 4.6 ug/ml, source C (virus producing H9 cells), virus kill 13.0%",11.8%
same,Percent Control Cleavage of Nonapeptide HIV-1 Cleavage Site Fragment,HIV-2 protease,59%
"CCCCCCCCC[C@H]1O[C@@H]1C(=O)O [Example 36, (2S-trans)-3-Nonyloxiranecarboxylic acid]",Percent control (tetrapeptide produced),porcine Renin,12%
same,Percent Control Cleavage of Nonapeptide HIV-1 Cleavage Site Fragment,HIV-2 protease,12%
"CCCCCCCCC[C@H]1O[C@H]1C(N)=O [Example 23, (2R-cis)-3-Nonyloxiranecarboxy Amide]",Percent control (tetrapeptide produced),porcine Renin,88%
same,viability at 2.8 µg/mL,"HIV1 IIIb; 168 h, read-out: Antiviral Effect (viable cells as % of uninfected controls), run 7, 2.8 ug/ml, source V (cell free virus), virus kill 19.0%",108%
same,viability at 7.6 µg/mL,"HIV1 IIIb; 168 h, read-out: Antiviral Effect (viable cells as % of uninfected controls), run 8, 7.6 ug/ml, source V (cell free virus), virus kill 30.0%",40.2%
same,viability at 3.8 µg/mL,"HIV1 IIIb; 168 h, read-out: Antiviral Effect (viable cells as % of uninfected controls), run 9, 3.8 ug/ml, source V (cell free virus), virus kill 52.0%",60.1%
same,viability at 14 µg/mL,"HIV1 IIIb; 168 h, read-out: Antiviral Effect (viable cells as % of uninfected controls), run 10, source V (cell free virus), virus kill 52.0%",60.1%
same,viability at 380 µg/mL,"HIV1 IIIb; 168 h, read-out: Antiviral Effect (viable cells as % of uninfected controls), run 11, 380 ug/ml, source V (cell free virus), virus kill 20.0%",24%
same,viability at 140 µg/mL,"HIV1 IIIb; 168 h, read-out: Antiviral Effect (viable cells as % of uninfected controls), run 12, source V (cell free virus), virus kill 20.0%",31%
same,viability at 27 µg/mL,"HIV1 IIIb; 168 h, read-out: Antiviral Effect (viable cells as % of uninfected controls), run 13*, 27 ug/ml, source V (cell free virus), virus kill 22.0%, culture redosed with compound after 3 days",79.6%
same,viability at 28 µg/mL,"HIV1 IIIb; H9, 168 h, read-out: Antiviral Effect (viable cells as % of uninfected controls), run 1, 28 ug/ml, source C (virus producing H9 cells), virus kill 6.0%",75.6%
same,viability at 76 µg/mL,"HIV1 IIIb; H9, 168 h, read-out: Antiviral Effect (viable cells as % of uninfected controls), run 2, 76 ug/ml, source C (virus producing H9 cells), virus kill 17.0%",28.5%
same,viability at 38 µg/mL,"HIV1 IIIb; H9, 168 h, read-out: Antiviral Effect (viable cells as % of uninfected controls), run 3, source C (virus producing H9 cells), virus kill 14.0%",35.1%
same,viability at 140 µg/mL,"HIV1 IIIb; H9, 168 h, read-out: Antiviral Effect (viable cells as % of uninfected controls), run 4, source C (virus producing H9 cells), virus kill 14.0%",25.1%
same,viability at 38 µg/mL,"HIV1 IIIb; H9, 168 h, read-out: Antiviral Effect (viable cells as % of uninfected controls), run 5, source C (virus producing H9 cells), virus kill 17.0%",17%
same,viability at 14 µg/mL,"HIV1 IIIb; H9, 168 h, read-out: Antiviral Effect (viable cells as % of uninfected controls), run 6, source C (virus producing H9 cells), virus kill 17.0%",16%
same,Percent Control Cleavage of Nonapeptide HIV-1 Cleavage Site Fragment,HIV-2 protease,102%
"CCCCCCC[C@@H]1O[C@@H]1CO [Example 16, (2R-cis)-3-Heptyloxirane Methanol]",Percent control (tetrapeptide produced),porcine Renin,96%
same,viability at 160 µg/mL,"HIV1 IIIb; 168 h, read-out: Antiviral Effect (viable cells as % of uninfected controls), run 4, 160 ug/ml, source V (cell free virus), virus kill 40.0%",62.6%
same,viability at 80.2 µg/mL,"HIV1 IIIb; 168 h, read-out: Antiviral Effect (viable cells as % of uninfected controls), run 5, source V (cell free virus), virus kill 60.0%",97.3%
same,viability at 80.2 µg/mL,"HIV1 IIIb; 168 h, read-out: Antiviral Effect (viable cells as % of uninfected controls), run 6, source V (cell free virus), virus kill 30.0%",88.6%
same,viability at 23.8 µg/mL,"HIV1 IIIb; 168 h, read-out: Antiviral Effect (viable cells as % of uninfected controls), run 7, source V (cell free virus), virus kill 22.0%",35.9%
same,viability at 23.8 µg/mL,"HIV1 IIIb; 168 h, read-out: Antiviral Effect (viable cells as % of uninfected controls), run 8*, source V (cell free virus), virus kill 28.0%, culture redosed with compound after 3 days",39.7%
same,viability at 10.6 µg/mL,"HIV1 IIIb; H9, 168 h, read-out: Antiviral Effect (viable cells as % of uninfected controls), run 1, 10.6 ug/ml, source C (virus producing H9 cells), virus kill 14.0%",27.3%
same,viability at 80.2 µg/mL,"HIV1 IIIb; H9, 168 h, read-out: Antiviral Effect (viable cells as % of uninfected controls), run 2, source C (virus producing H9 cells), virus kill 15.0%",69.6%
same,viability at 80.2 µg/mL,"HIV1 IIIb; H9, 168 h, read-out: Antiviral Effect (viable cells as % of uninfected controls), run 3, source C (virus producing H9 cells), virus kill 15.0%",84.5%
same,Percent Control Cleavage of Nonapeptide HIV-1 Cleavage Site Fragment,HIV-2 protease,42%
"O=[N+]([O-])c1ccc(OCC2CO2)cc1 (centres unmarked) [1,2-Epoxy-3-(p-nitrophenoxy)propane, reference compound]",Percent control (tetrapeptide produced),porcine Renin,106%
same,Percent Control Cleavage of Nonapeptide HIV-1 Cleavage Site Fragment,HIV-2 protease,18%
"CCCCCCCCC[C@@H]1O[C@H]1C(=O)O [Example 35, (2R-trans)-3-Nonyloxiranecarboxylic Acid]",Percent control (tetrapeptide produced),porcine Renin,72%
same,Percent Control Cleavage of Nonapeptide HIV-1 Cleavage Site Fragment,HIV-2 protease,77%
"CCCCCCCCCCC[C@H]1O[C@@H]1C(=O)O [Example 40, (2S-trans)-3-Undecyloxiranecarboxylic Acid]",Percent control (tetrapeptide produced),porcine Renin,71%
same,Percent Control Cleavage of Nonapeptide HIV-1 Cleavage Site Fragment,HIV-2 protease,93%
